From patent US9845310B2 (priority 2015, dated 2017)

What was measured:
APJ = APJ (Homo sapiens (Human), UniProt P35414); assay: [35S]GTPγS binding assay on membranes from CHO cells stably expressing human APJ receptor; assay type: biochemical; settings: read-out: Activity hAPJ SPA EC50 IP
Method: A GTPγS binding assay was performed on membranes prepared from CHO cells stably expressing human APJ receptor. The optimum experimental conditions for the concentrations of GDP, MgCl2, and NaCl in the assay buffer were initially determined. The assay was performed in assay buffer [20 mM HEPES, pH 7.5, 5 mM MgCl2, and 0.1% (w/v) BSA with 200 mM NaCl, 3 M GDP] and membranes expressing human APJ receptor/well along with WGA PS beads. The reaction was initiated by addition of 0.2 nM [^35S]GTPγS (Perkin Elmer Life and Analytical Sciences, Waltham USA) in the absence or presence of various ligands and incubated at RT for 90 min. Nonspecific binding was determined in the presence of 100 M GTPγS and was always less than 0.2% of total binding.

[1] = system: naive Sprague Dawley rat hearts; settings: ex vivo isolated perfused rat heart, percent change over vehicle; for Isolated Heart Assay dP/dtmax(%): contractility; for Isolated Heart Assay dP/dtmin(%): relaxation (lusitropic)

APJ, sequence (P35414 whole entry, the tested form may be a part): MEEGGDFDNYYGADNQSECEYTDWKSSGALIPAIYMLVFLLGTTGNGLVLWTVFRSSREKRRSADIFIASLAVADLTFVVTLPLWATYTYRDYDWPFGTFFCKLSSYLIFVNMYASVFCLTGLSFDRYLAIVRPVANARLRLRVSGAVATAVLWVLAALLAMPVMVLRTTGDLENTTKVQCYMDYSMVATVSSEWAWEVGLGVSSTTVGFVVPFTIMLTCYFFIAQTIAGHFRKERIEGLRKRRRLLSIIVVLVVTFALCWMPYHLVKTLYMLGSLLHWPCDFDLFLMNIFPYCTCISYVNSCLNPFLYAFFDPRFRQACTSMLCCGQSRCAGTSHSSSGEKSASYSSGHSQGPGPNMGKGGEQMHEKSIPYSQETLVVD

Row | SMILES | EC50 (APJ) [nM] | Isolated Heart Assay dP/dtmax(%) [1] [%] | Isolated Heart Assay dP/dtmin(%) [1]
1 | COc1cccc(OC)c1-n1c(NS(=O)(=O)[C@@H](C)Cc2ncc(F)cn2)nnc1-c1cncc(C)c1 (mixture of isomers) [Example 207.0, (S)-N-(4-(2,6-dimethoxyphenyl)-5-(5-methylpyridin-3-yl)-4H-1,2,4-triazol-3-yl)-1-(5-fluoropyrimidin-2-yl)propane-2-sulfonamide and (R)-N-(4-(2,6-dimethoxyphenyl)-5-(5-methylpyridin-3-yl)-4H-1,2,4-triazol-3-yl)-1-(5-fluoropyrimidin-2-yl)propane-2-sulfonamide] | 3.3 | – | –
2 | COc1cccc(OC)c1-n1c(NS(=O)(=O)[C@@H](C)Cc2ncc(F)cn2)nnc1-c1cnccc1C (mixture of isomers) [Example 216.0, (2S)-N-(4-(2,6-dimethoxyphenyl)-5-(4-methyl-3-pyridinyl)-4H-1,2,4-triazol-3-yl)-1-(5-fluoro-2-pyrimidinyl)-2-propanesulfonamide and (2R)-N-(4-(2,6-dimethoxyphenyl)-5-(4-methyl-3-pyridinyl)-4H-1,2,4-triazol-3-yl)-1-(5-fluoro-2-pyrimidinyl)-2-propanesulfonamide] | 570 | – | –
3 | COc1cccc(OC)c1-n1c(NS(=O)(=O)[C@@H](C)Cc2ncc(F)cn2)nnc1-c1cncc(Cl)c1 (mixture of isomers) [Example 219.0, (2S)-N-(5-(5-chloro-3-pyridinyl)-4-(2,6-dimethoxyphenyl)-4H-1,2,4-triazol-3-yl)-1-(5-fluoro-2-pyrimidinyl)-2-propanesulfonamide and (2R)-N-(5-(5-chloro-3-pyridinyl)-4-(2,6-dimethoxyphenyl)-4H-1,2,4-triazol-3-yl)-1-(5-fluoro-2-pyrimidinyl)-2-propanesulfonamide] | 8.5 | – | –
4 | CCNC(=O)c1cccc(-c2nnc(NS(=O)(=O)[C@@H](C)Cc3ncc(F)cn3)n2-c2c(OC)cccc2OC)n1 (mixture of isomers) [Example 228.0, 6-(4-(2,6-dimethoxyphenyl)-5-((((1S)-2-(5-fluoro-2-pyrimidinyl)-1-methylethyl)sulfonyl)amino)-4H-1,2,4-triazol-3-yl)-N-ethyl-2-pyridinecarboxamide and 6-(4-(2,6-dimethoxyphenyl)-5-((((1R)-2-(5-fluoro-2-pyrimidinyl)-1-methylethyl)sulfonyl)amino)-4H-1,2,4-triazol-3-yl)-N-ethyl-2-pyridinecarboxamide] | 5.3 | – | –
5 | COc1cccc(OC)c1-n1c(NS(=O)(=O)[C@@H](C)[C@H](O)c2ccc(C#N)cc2)nnc1-c1cncc(C)c1 (mixture of isomers) [Example 247.0, (1R,2S)-1-(4-cyanophenyl)-N-(4-(2,6-dimethoxyphenyl)-5-(5-methyl-3-pyridinyl)-4H-1,2,4-triazol-3-yl)-1-hydroxy-2-propanesulfonamide and (1S,2R)-1-(4-cyanophenyl)-N-(4-(2,6-dimethoxyphenyl)-5-(5-methyl-3-pyridinyl)-4H-1,2,4-triazol-3-yl)-1-hydroxy-2-propanesulfonamide] | 3.8 | – | –
6 | COc1cccc(-c2nnc(NS(=O)(=O)[C@H](C)[C@@H](O)c3cn4ccccc4n3)n2-c2c(OC)cccc2OC)n1 (mixture of isomers) [Example 256.0, (1S,2R)-N-(4-(2,6-dimethoxyphenyl)-5-(6-methoxypyridin-2-yl)-4H-1,2,4-triazol-3-yl)-1-hydroxy-1-(imidazo[1,2-a]pyridin-2-yl)propane-2-sulfonamide and (1R,2S)-N-(4-(2,6-dimethoxyphenyl)-5-(6-methoxypyridin-2-yl)-4H-1,2,4-triazol-3-yl)-1-hydroxy-1-(imidazo[1,2-a]pyridin-2-yl)propane-2-sulfonamide] | 0.4 | – | –
7 | COc1cccc(-c2nnc(NS(=O)(=O)C[C@@H](O)c3cn4ccccc4n3)n2-c2c(OC)cccc2OC)n1 (mixture of isomers) [Example 257.0, (S)-N-(4-(2,6-dimethoxyphenyl)-5-(6-methoxypyridin-2-yl)-4H-1,2,4-triazol-3-yl)-2-hydroxy-2-(imidazo[1,2-a]pyridin-2-yl)ethanesulfonamide and (R)-N-(4-(2,6-dimethoxyphenyl)-5-(6-methoxypyridin-2-yl)-4H-1,2,4-triazol-3-yl)-2-hydroxy-2-(imidazo[1,2-a]pyridin-2-yl)ethanesulfonamide] | 0.73 | – | –
8 | COc1cccc(OC)c1-n1c(NS(=O)(=O)[C@@H](C)[C@H](OC)c2ncc(F)cn2)nnc1-c1cccnc1 [Example 81.0, (1R,2S)-N-(4-(2,6-dimethoxyphenyl)-5-(3-pyridinyl)-4H-1,2,4-triazol-3-yl)-1-(5-fluoro-2-pyrimidinyl)-1-methoxy-2-propanesulfonamide] | – | 14.0 | 15.0%
9 | COc1cccc(OC)c1-n1c(NS(=O)(=O)[C@@H](C)[C@H](O)c2ncc(F)cn2)nnc1-c1cccnc1 [Example 82.0, (1R,2S)-N-(4-(2,6-dimethoxyphenyl)-5-(3-pyridinyl)-4H-1,2,4-triazol-3-yl)-1-(5-fluoro-2-pyrimidinyl)-1-hydroxy-2-propanesulfonamide] | – | 13.5 | 16.2%
10 | CCO[C@H](c1ncc(C)cn1)[C@H](C)S(=O)(=O)Nc1nnc(-c2cncc(C)c2)n1-c1c(OC)cccc1OC [Example 252.0, (1R,2S)-N-(4-(2,6-dimethoxyphenyl)-5-(5-methylpyridin-3-yl)-4H-1,2,4-triazol-3-yl)-1-ethoxy-1-(5-methylpyrimidin-2-yl)propane-2-sulfonamide] | – | 15.7 | 16.3%
11 | CCO[C@H](c1ncc(Cl)cn1)[C@H](C)S(=O)(=O)Nc1nnc(-c2cccnc2)n1-c1c(OC)cccc1OC [Example 430.0, (1R,2S)-1-(5-chloropyrimidin-2-yl)-N-(4-(2,6-dimethoxyphenyl)-5-(pyridin-3-yl)-4H-1,2,4-triazol-3-yl)-1-ethoxypropane-2-sulfonamide] | – | 10.0 | 9.7%
12 | COc1cccc(OC)c1-n1c(NS(=O)(=O)[C@@H](C)[C@H](OC)c2ncc(Cl)cn2)nnc1-c1cccnc1 [Example 591.0, (1R,2S)-1-(5-chloro-2-pyrimidinyl)-N-(4-(2,6-dimethoxyphenyl)-5-(3-pyridinyl)-4H-1,2,4-triazol-3-yl)-1-methoxy-2-propanesulfonamide] | – | 8.0 | 0.0%
13 | CCO[C@H](c1ncc(Cl)cn1)[C@H](C)S(=O)(=O)Nc1nnc(-c2cncc(C)c2)n1-c1c(OC)cccc1OC [Example 610.0, (1R,2S)-1-(5-chloro-2-pyrimidinyl)-N-(4-(2,6-dimethoxyphenyl)-5-(5-methyl-3-pyridinyl)-4H-1,2,4-triazol-3-yl)-1-ethoxy-2-propanesulfonamide] | – | 6.0 | No effect
14 | COc1cccc(OC)c1-n1c(NS(=O)(=O)[C@H](C)[C@@H](O)c2cnc(C)cn2)nnc1-c1cccnc1 [Example 614.0, (1S,2R)-N-(4-(2,6-dimethoxyphenyl)-5-(3-pyridinyl)-4H-1,2,4-triazol-3-yl)-1-hydroxy-1-(5-methyl-2-pyrazinyl)-2-propanesulfonamide] | – | 6.6 | 6.2%
15 | COc1cccc(OC)c1-n1c(NS(=O)(=O)CCc2ccc(F)cc2C#N)nnc1-c1cncc(C)c1 [Example 621.0, 2-(2-cyano-4-fluorophenyl)-N-(4-(2,6-dimethoxyphenyl)-5-(5-methyl-3-pyridinyl)-4H-1,2,4-triazol-3-yl)ethanesulfonamide] | – | 7.4 | 6.0%
16 | COc1ncnc(OC)c1-n1c(NS(=O)(=O)[C@@H](C)[C@H](C)c2ncc(Cl)cn2)nnc1-c1cccnc1 [Example 709.0, (2S,3R)-3-(5-chloro-2-pyrimidinyl)-N-(4-(4,6-dimethoxy-5-pyrimidinyl)-5-(3-pyridinyl)-4H-1,2,4-triazol-3-yl)-2-butanesulfonamide] | – | 6.0 | 3.0%
17 | COc1cccc(-c2nnc(NS(=O)(=O)[C@@H](C)[C@H](C)c3ncc(Cl)cn3)n2-c2c(OC)ncnc2OC)n1 [Example 710.0, (2S,3R)-3-(5-chloro-2-pyrimidinyl)-N-(4-(4,6-dimethoxy-5-pyrimidinyl)-5-(6-methoxy-2-pyridinyl)-4H-1,2,4-triazol-3-yl)-2-butanesulfonamide] | – | 12.7 | 10.3%
18 | COc1cccc(-c2nnc(NS(=O)(=O)[C@@H](C)[C@H](C)c3ncc(C)cn3)n2-c2c(F)cccc2F)n1 [Example 784.0, (2S,3R)-N-(4-(2,6-difluorophenyl)-5-(6-methoxy-2-pyridinyl)-4H-1,2,4-triazol-3-yl)-3-(5-methyl-2-pyrimidinyl)-2-butanesulfonamide] | – | 4.3 | 1.93%
19 | COc1cccc(-c2nnc(NS(=O)(=O)[C@@H](C)[C@H](C)c3cnc(C)cn3)n2-c2c(OC)ncnc2OC)n1 [Example 799.0, (2S,3R)-N-(4-(4,6-dimethoxy-5-pyrimidinyl)-5-(6-methoxy-2-pyridinyl)-4H-1,2,4-triazol-3-yl)-3-(5-methyl-2-pyrazinyl)-2-butanesulfonamide] | – | 7.8 | 14.1%
20 | COc1cnc([C@@H](C)[C@H](C)S(=O)(=O)Nc2nnc(-c3cccnc3)n2-c2c(OC)ncnc2OC)cn1 [Example 803.0, (2S,3R)-N-(4-(4,6-dimethoxy-5-pyrimidinyl)-5-(3-pyridinyl)-4H-1,2,4-triazol-3-yl)-3-(5-methoxy-2-pyrazinyl)-2-butanesulfonamide] | – | 11.4 | 10.0%
